Results from patent US6545182B2, “Methods and compositions for modulating alpha adrenergic receptor activity” (Allergan Sales, Inc., priority 2000, dated 2003).

Columns and labels:
Assay type in all cases: cell-based
[1] = biological target: T1, alpha 2B adrenergic receptor (Homo sapiens, UniProt P18089); test: RSAT (Receptor Selection and Amplification Technology) assay, alpha 2B; settings: for EC50: NIH-3T3 cells cotransfected with receptor and Gq/i5; for efficacy or intrinsic activity (value in parentheses) Alpha 2B: ratio of maximal effect to that of standard full agonist brimonidine
T1 construct: expressed in transfected cells; host or cells: NIH-3T3 cells, transient cotransfection by calcium phosphate
T1 sequence (P18089 1-450): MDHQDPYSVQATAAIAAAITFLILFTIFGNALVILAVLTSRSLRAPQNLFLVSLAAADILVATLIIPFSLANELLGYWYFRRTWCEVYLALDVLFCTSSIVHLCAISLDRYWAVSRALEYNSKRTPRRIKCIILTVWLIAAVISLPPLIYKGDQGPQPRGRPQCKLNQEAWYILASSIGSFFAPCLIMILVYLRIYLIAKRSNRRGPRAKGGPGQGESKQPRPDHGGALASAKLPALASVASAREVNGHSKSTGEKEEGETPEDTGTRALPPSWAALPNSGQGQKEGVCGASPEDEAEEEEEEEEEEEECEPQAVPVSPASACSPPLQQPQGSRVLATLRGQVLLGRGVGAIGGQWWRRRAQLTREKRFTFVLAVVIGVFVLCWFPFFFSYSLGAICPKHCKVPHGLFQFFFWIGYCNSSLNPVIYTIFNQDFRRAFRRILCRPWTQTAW
Experimental: (§1) Activity was measured using the RSAT (Receptor Selection and Amplification Technology) assay, developed by Receptor Technologies, Inc. of Winooski, Vt. (now Acadia Pharmaceuticals of San Diego, Calif.), adapted for use with recombinant alpha2 adrenergic receptors in collaboration with Allergan. The assay measures receptor-mediated loss of contact inhibition that results in selective proliferation of receptor-containing cells in a mixed population of confluent cells. The increase in cell number is assessed with an appropriate transfected marker gene such as β-galactosidase, the activity of which can be easily measured in a 96-well format. Receptors that activate the G protein, Gq, elicit this response. Alpha2 receptors, which normally couple to Gi, activate the RSAT response when coexpressed with a hybrid Gq protein that has a Gi receptor recognition domain, called Gq/i5.
(§2) The assay is conducted as follows. NIH-3T3 cells are plated at a density of 2×10^6 cells in 15 cm dishes and maintained in Dulbecco's modified Eagle's medium supplemented with 10% calf serum. One day later, cells are cotransfected by calcium phosphate precipitation with mammalian expression plasmids encoding p-SV-β-galactosidase (5-10 μg), receptor (1-2 μg) and G protein (1-2 μg). 40 μg salmon sperm DNA may also be included in the transfection mixture to increase transfection efficiency. Fresh media is added on the following day and 1-2 days later, cells are harvested and frozen in 50 assay aliquots. Transfectant cells are thawed and 100 μl added to 100 μl aliquots of various concentrations of drugs in triplicate in 96-well dishes. Incubations continue 72-96 hr at 37°. After washing with phosphate-buffered saline, β-galactosidase enzyme activity is determined by adding 200 μl of the chromogenic substrate (consisting of 3.5 mM o-nitrophenyl-β-D-galactopyranoside and 0.5% of the non-ionic surfactant nonidet P-40 in phosphate buffered saline), incubating overnight at 30° and measuring optical density at 420 nm. The absorbency is a measure of enzyme activity, which depends on cell number and reflects a receptor-mediated cell proliferation. The EC50 and maximal effect of each drug at each alpha2 receptor is determined. The efficacy or intrinsic activity is calculated as a ratio of the maximal effect of the drug to the maximal effect of a standard full agonist for each receptor subtype. Brimonidine, also called UK14304, is used as the standard agonist for the alpha2A, alpha2B and alpha2C receptors. The RSAT assay is also discussed in Messier et al. (1995) High throughput assays of cloned adrenergic, muscarinic, neurokinin and neurotrophin receptors in living mammalian cells, Pharmacol. Toxicol. 76:308-11; see also Conklin et al. (1993) Substitution of three amino acids switches receptor specificity of Gqα to that of Giα, Nature 363:274-6; Both of these papers are incorporated by reference herein.

[2] = biological target: T2, alpha 2A adrenergic receptor (Homo sapiens, UniProt P08913); test: RSAT (Receptor Selection and Amplification Technology) assay, alpha 2A; settings: for EC50: NIH-3T3 cells cotransfected with receptor and Gq/i5; for efficacy or intrinsic activity (value in parentheses) Alpha 2A: ratio of maximal effect to that of standard full agonist brimonidine
T2 construct: expressed in transfected cells; host or cells: NIH-3T3 cells, transient cotransfection by calcium phosphate
T2 sequence (P08913 1-465): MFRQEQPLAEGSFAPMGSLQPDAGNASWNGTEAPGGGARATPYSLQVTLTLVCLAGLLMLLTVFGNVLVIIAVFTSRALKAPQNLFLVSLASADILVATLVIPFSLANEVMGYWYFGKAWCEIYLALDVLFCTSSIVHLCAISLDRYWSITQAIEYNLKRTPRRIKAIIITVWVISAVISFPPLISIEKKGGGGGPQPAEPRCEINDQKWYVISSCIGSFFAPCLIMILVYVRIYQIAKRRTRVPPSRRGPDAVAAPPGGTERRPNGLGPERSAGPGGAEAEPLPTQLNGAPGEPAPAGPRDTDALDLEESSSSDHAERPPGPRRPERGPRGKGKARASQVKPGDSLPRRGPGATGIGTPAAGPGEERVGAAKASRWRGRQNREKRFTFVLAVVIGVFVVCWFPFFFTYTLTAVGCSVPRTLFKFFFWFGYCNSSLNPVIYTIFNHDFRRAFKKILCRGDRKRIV
Experimental: as §1, §2

[3] = biological target: T3, alpha 2C adrenergic receptor (Homo sapiens, UniProt P18825); test: RSAT (Receptor Selection and Amplification Technology) assay, alpha 2C; settings: for EC50: NIH-3T3 cells cotransfected with receptor and Gq/i5; for efficacy or intrinsic activity (value in parentheses) Alpha 2C: ratio of maximal effect to that of standard full agonist brimonidine
T3 construct: expressed in transfected cells; host or cells: NIH-3T3 cells, transient cotransfection by calcium phosphate
T3 sequence (P18825 1-462): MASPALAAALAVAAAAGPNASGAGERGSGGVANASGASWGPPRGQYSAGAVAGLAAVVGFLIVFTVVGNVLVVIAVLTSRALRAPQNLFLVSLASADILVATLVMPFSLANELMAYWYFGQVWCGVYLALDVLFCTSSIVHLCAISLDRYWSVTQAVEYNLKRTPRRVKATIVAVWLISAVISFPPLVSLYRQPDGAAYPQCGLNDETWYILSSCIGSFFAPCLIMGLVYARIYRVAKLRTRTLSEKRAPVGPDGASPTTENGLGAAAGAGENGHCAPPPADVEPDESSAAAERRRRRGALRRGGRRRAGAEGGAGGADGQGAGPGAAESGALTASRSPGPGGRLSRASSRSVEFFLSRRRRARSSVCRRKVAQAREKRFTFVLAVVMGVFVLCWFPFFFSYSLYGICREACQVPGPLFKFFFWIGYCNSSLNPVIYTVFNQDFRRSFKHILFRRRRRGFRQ
Experimental: as §1, §2

| Compound | EC50 [1] [nM] | efficacy or intrinsic activity (value in parentheses) Alpha 2B [1] | EC50 [2] [nM] | efficacy or intrinsic activity (value in parentheses) Alpha 2A [2] | EC50 [3] [nM] | efficacy or intrinsic activity (value in parentheses) Alpha 2C [3] |
| --- | --- | --- | --- | --- | --- | --- |
| Cc1ccc(F)c(CNC(=S)NCCO)c1 | 95 | 0.91 | ≥ 210000 | – | – | – |
| COc1ccc(F)cc1CNC(=S)NCCO | 9 | 0.96 | 930 | 0.39 | 45 | 0.78 |
| OCCNC(=S)NCc1cccc(Cl)c1 | 16 | 0.7 | ≥ 210000 | – | ≥ 210000 | – |
| OCCNC(=S)NCc1c(F)cc(F)c(F)c1F | 2050 | 0.89 | ≥ 210000 | – | ≥ 210000 | – |
| OCCNC(=S)NCc1cccc(Cl)c1F [drawing 20] | 16 | 0.82 | ≥ 210000 | – | 457 | 0.37 |
| OCCNC(=S)NCc1cccc(C(F)(F)F)c1Cl | 33 | 1.1 | ≥ 210000 | – | – | – |
| OCCNC(=S)NCc1c(F)cccc1Cl | 174 | 0.55 | ≥ 210000 | – | ≥ 210000 | – |
| OCCNC(=S)NCc1cc(Br)ccc1Cl | 50 | 0.78 | ≥ 210000 | – | – | – |
| OCCNC(=S)NCc1cc(Br)c(F)c(F)c1F | 512 | 1.07 | ≥ 210000 | – | ≥ 210000 | – |
| OCCNC(=S)NCc1ccccc1C(F)(F)F | 694 | 0.93 | ≥ 210000 | – | 783 | 0.4 |
| Cc1ccc(CNC(=S)NCCO)cc1 | 59 | 0.6 | ≥ 210000 | – | 1810 | 0.4 |
| CCOc1ccccc1CNC(=S)NCCO | 42 | 0.7 | ≥ 210000 | – | 28 | 0.4 |
| OCCNC(=S)NCc1ccc(F)c(Cl)c1 | 99 | 0.6 | ≥ 210000 | – | ≥ 210000 | – |
| OCCNC(=S)NCc1cccc(I)c1F | 2 | 1.35 | 62 | 0.85 | 23 | 0.91 |
| OCCNC(=S)NCc1cc(F)ccc1O | 27 | 1.20 | ≥ 210000 | – | 144 | 0.74 |
| OCCNC(=S)NCc1ccc(F)c(Br)c1F | 138 | 1.01 | ≥ 210000 | – | 786 | 0.66 |

| Compound | EC50 [1] [nM] | efficacy or intrinsic activity (value in parentheses) Alpha 2B [1] | EC50 [2] [nM] | efficacy or intrinsic activity (value in parentheses) Alpha 2A [2] | EC50 [3] [nM] | efficacy or intrinsic activity (value in parentheses) Alpha 2C [3] |
| --- | --- | --- | --- | --- | --- | --- |
| Cc1cc(CNC(=S)NCCO)c(F)c(F)c1F | 120 | 0.92 | ≥ 210000 | – | ≥ 210000 | – |
| OCCNC(=S)NCc1c(F)ccc(F)c1Cl | 44 | 0.94 | ≥ 210000 | – | 1850 | 0.54 |
| OCCNC(=S)NCc1cc(Br)ccc1F | 36 | 0.97 | ≥ 210000 | – | 459 | 0.58 |
| OCCNC(=S)NCc1c(Br)ccc(I)c1F | 70 | 0.49 | ≥ 210000 | – | ≥ 210000 | – |
| OCCNC(=S)NCc1ccc(F)cc1Cl | 579 | 0.75 | ≥ 210000 | – | ≥ 210000 | – |
| OCCNC(=S)NCc1cccc(Br)c1F | 5.5 | 1.03 | 136 | 0.52 | 41 | 0.88 |
| COc1c(F)cccc1CNC(=S)NCCO | 169 | 0.95 | ≥ 210000 | – | 843 | 0.38 |
| OCCNC(=S)NCc1ccccc1I | 21 | 1.26 | ≥ 210000 | – | 226 | 0.7 |
| Cc1ccc(Br)c(F)c1CNC(=S)NCCO | 181 | 0.95 | ≥ 210000 | – | > 2000 | – |
| OCCNC(=S)NCc1cc(F)ccc1Br | 20 | 1.0 | ≥ 210000 | – | 137 | 0.63 |
| COc1ccc(Cl)cc1CNC(=S)NCCO | 19 | 1.09 | 380 | 0.33 | 175 | 0.53 |
| OCCNC(=S)NCc1cc(Cl)ccc1Br | 25 | 0.82 | ≥ 210000 | – | – | – |
| OCCNC(=S)NCc1c(F)ccc(Br)c1F | 205 | 0.81 | ≥ 210000 | – | – | – |
| OCCNC(=S)NCc1cc(F)c(F)cc1F | 271 | 0.48 | ≥ 210000 | – | – | – |
| OCCNC(=S)NCc1cc(Cl)cc(Cl)c1F | 118 | 0.92 | ≥ 210000 | – | – | – |
| COc1ccc(F)c(CNC(=S)NCCO)c1 | 282 | 0.91 | ≥ 210000 | – | – | – |
